The text below walks through data of article PMC10974317, “Anti-COVID Drugs (MMV COVID Box) as Leishmanicidal Agents: Unveiling New Therapeutic Horizons” (Pharmaceuticals, 2024).

Assay [1] concerns Leishmania donovani promastigotes. In words: Leishmanicidal activity against promastigotes (alamarBlue assay). The format is cell-based. Particulars: 72 h; for IC50: Leishmania donovani, read-out: inhibitory concentration 50 (IC50), promastigote stage, L. donovani. On the procedure:
(§1) Initial screening of the 160 compounds against Leishmania promastigotes was performed at 10 μM following MMV foundation instructions provided with the box. The compound activity was assessed using the modified alamarBlue® assay (Invitrogen/Life Technologies, Madrid, Spain) with 10^6 promastigotes per well. DMSO concentration never surpassed 0.1% (v/v) to avoid impacting parasite proliferation or morphology. Subsequently, an EnSpire multimode plate reader (PerkinElmer, MA, USA) was used to measure fluorescence after 72 h. […] Serial dilutions were made in 96-well plates and incubated with parasites for 72 h after adding alamarBlue®. IC50 values were calculated using SigmaPlot 14.0 (Systat Software Inc., Chicago, IL, USA) based on fluorescence measurements. Each concentration was tested in duplicate across three independent experiments.
(In general: The colour change of resazurin is a common sign of viable cells or microbes.)

Assay [2] has as its system Leishmania amazonensis promastigotes. The description is as above. The format is cell-based. Particulars: 72 h, mean ± SD, read-out: inhibitory concentration 50 (IC50), promastigote stage, L. amazonensis. How it is done: as §1
For assay [3], the system named is L. amazonensis intracellular amastigotes. In words: Intracellular amastigote activity (parasite rescue and transformation assay). The format is cell-based, Leishmania amazonensis. To be noted: for Selectivity index (CC50/IC50): CC50 murine macrophages / IC50 L. amazonensis amastigotes. How it is done: Intracellular amastigote activity against L. amazonensis was measured through a parasite rescue and transformation assay for the purchased compounds. Macrophages were seeded in a 96-well plate and infected with promastigotes at the metacyclic stage for subsequent compound treatment. After incubation, macrophages were lysed, and the medium and conditions were changed to stimulate amastigote transformation. The results were assessed using alamarBlue® [28].

In assay [4] the test system is Leishmania amazonensis promastigotes. Nature of the assay: Mitochondrial membrane potential disruption (JC-1). To be noted: 24 h with IC90, vs negative control. The format is cell-based. On the procedure:
JC-1 Mitochondrial Membrane Potential kit (Cayman Chemical, Ann Arbor, MI, USA) was employed following the manufacturer’s instructions. […] Three independent experiments were conducted for this assay.

[5] abbreviates: promastigotes, alamarBlue, mean ± SD, w/a: without activity.
[6] abbreviates: Leishmania amazonensis, Macrophage, in Mus musculus, intracellular amastigotes in murine macrophages, read-out: IC50, amastigote stage, L. amazonensis.

Read-outs that look alike come from different tables or passages of the source.

Take `C[C@@H]1CCCN1CCc1cc2cc(-c3ccc(C#N)cc3)ccc2o1` [ABT239]: the IC50 was 1.68 ± 0.25 µM in assay [1] (setting [5]), 1.31 ± 0.07 µM in assay [2], < 1.4 µM in assay [2] (Leishmania amazonensis) and 0.49 ± 0.13 µM in assay [3] (setting [6]). The “Selectivity index (CC50/IC50)” value in assay [3] was determined as 46.

As for `CC(C)N1CCN(c2ccc(OCC3COC(Cn4cncn4)(c4ccc(Cl)cc4Cl)O3)cc2)CC1` (stereo not drawn) [Terconazole], the IC50 was 11.6 ± 1.38 µM in assay [1] (setting [5]); 3.82 ± 1.04 µM in assay [2] (Leishmania amazonensis); < 2.4 µM in assay [3] (setting [6]); 2.38 ± 0.4 µM in assay [3] (intracellular amastigotes in murine macrophages, read-out: IC50, amastigote stage, L. amazonensis). Also, the “change in mitochondrial membrane potential (ΔΨm)” value (shortened to “change … (ΔΨm)”) in assay [4] was “significant decrease”. Further, the “Selectivity index (CC50/IC50)” value in assay [3] is 19.

As to `C=CCNc1nc(NCC=C)nc(N2CCN(C(c3ccc(F)cc3)c3ccc(F)cc3)CC2)n1` [Almitrine], in assay [1] (setting [5]), the “inhibitory concentration 50 (IC50), promastigote stage, L. donovani” value was “w/a at 100”. Moreover, the IC50 in assay [2] was 1.19 ± 0.02 µM; in assay [2] (Leishmania amazonensis), < 1.4 µM; in assay [3] (setting [6]), < 2.4 µM; in assay [3] (read-out: IC50, amastigote stage, L. amazonensis, intracellular amastigotes in murine macrophages), 2.18 ± 0.47 µM. The “change … (ΔΨm)” value in assay [4] is “significant decrease”.

On to `CC(C)C[C@H](NC(=O)[C@H](Cc1ccccc1)NC(=O)c1cnccn1)B(O)O` [Bortezomib], for which the IC50 in assay [1] (setting [5]) came out at 37.2 ± 2.51 µM; in assay [2] (Leishmania amazonensis), 0.42 ± 0.08 µM; in assay [3] (Leishmania amazonensis, Macrophage, in Mus musculus, read-out: IC50, amastigote stage, L. amazonensis, intracellular amastigotes in murine macrophages), 0.04 ± 0.01 µM. In addition, the “change … (ΔΨm)” value in assay [4] is “significant decrease”.

Turning to `CCCCCCCCCCCCCCCCOP(=O)([O-])OCC[N+](C)(C)C` [Miltefosine], in assay [1], the IC50 was determined as 72.2 ± 3.06 µM. Besides, the “Selectivity index (CC50/IC50)” value in assay [3] was found to be 23.

On to `CO[C@@H]1[C@H](N(C)C(=O)c2ccccc2)C[C@H]2O[C@]1(C)n1c3ccccc3c3c4c(c5c6ccccc6n2c5c31)C(=O)NC4` [Midostaurin], for which the “activity against the amastigote form” value in assay [3] (at 10 μM) was “no activity”.
